From patent US7202261B2, “Calcilytic compounds” (NPS Pharmaceuticals, Inc., priority 1996, dated 2007)
Where a name gives a salt, the structure may show the parent alone.

biological target: T1, human calcium receptor (Homo sapiens, UniProt P41180); test: Calcium Receptor Inhibitor Assay; type: cell-based; details: not given
T1 construct: expressed in transfected cells
T1 sequence (P41180 20-1078): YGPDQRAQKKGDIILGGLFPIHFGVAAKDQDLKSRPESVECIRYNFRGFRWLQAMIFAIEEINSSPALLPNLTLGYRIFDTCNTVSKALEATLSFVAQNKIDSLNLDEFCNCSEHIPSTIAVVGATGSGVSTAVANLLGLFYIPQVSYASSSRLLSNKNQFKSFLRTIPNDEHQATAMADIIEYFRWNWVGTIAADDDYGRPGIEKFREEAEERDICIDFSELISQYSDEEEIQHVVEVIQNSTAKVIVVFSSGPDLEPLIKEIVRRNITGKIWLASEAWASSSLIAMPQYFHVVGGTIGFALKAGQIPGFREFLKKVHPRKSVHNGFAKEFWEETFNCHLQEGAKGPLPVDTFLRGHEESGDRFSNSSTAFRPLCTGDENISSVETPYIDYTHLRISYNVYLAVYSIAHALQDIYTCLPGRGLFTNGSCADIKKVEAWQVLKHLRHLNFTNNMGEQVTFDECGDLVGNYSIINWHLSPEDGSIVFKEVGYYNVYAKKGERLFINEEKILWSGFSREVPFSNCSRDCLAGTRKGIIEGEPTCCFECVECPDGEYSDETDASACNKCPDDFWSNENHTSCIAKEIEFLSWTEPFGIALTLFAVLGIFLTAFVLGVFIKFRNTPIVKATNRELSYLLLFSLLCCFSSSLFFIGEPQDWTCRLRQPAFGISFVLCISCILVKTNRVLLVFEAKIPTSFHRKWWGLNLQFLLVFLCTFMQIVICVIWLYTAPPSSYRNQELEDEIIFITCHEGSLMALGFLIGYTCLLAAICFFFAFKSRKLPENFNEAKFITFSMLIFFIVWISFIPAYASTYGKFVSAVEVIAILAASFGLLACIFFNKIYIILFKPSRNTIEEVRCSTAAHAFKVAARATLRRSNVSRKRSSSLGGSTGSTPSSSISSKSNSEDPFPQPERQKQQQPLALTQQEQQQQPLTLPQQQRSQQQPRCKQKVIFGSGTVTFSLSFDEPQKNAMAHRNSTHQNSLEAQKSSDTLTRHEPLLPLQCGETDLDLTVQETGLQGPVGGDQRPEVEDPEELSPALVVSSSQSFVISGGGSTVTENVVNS
Description: This example illustrates the use of the Calcium Receptor Inhibitor Assay. […] Res. 10 Suppl. […] Intracellular Ca^2+ was measured using fluo-3, a fluorescent calcium indicator.
The procedure was as follows:
1. Cells were maintained in T-150 flasks in selection media (DMEM supplemented with 10% fetal bovine serum and 200 μg/mL hygromycin B), under 5% CO2:95% air at 37° C. and were grown up to 90% confluency.
2. The medium was decanted and the cell monolayer was washed twice with phosphate-buffered saline (PBS) kept at 37° C. After the second wash, 6 mL of 0.02% EDTA in PBS was added and incubated for 4 minutes at 37° C. Following the incubation, cells were dispersed by gentle agitation.
3. Cells from 2 or 3 flasks were pooled and pelleted (100×g). The cellular pellet was resuspended in […] of SPF-PCB+ and pelleted again by centrifugation. This washing was done twice.
SPF-PCB was made up and stored at 4° C. On the day of use, SPF-PCB was supplemented with 1 mg/mL of D-glucose and 1 mM CaCl2 and then split into two fractions. To one fraction, bovine serum albumin (BSA; fraction V, ICN) was added at 5 mg/mL (SPF-PCB+). This buffer was used for washing, loading and maintaining the cells. The BSA-free fraction was used for diluting the cells in the cuvette for measurements of fluorescence.
5. Following the incubation period, the cells were pelleted by centrifugation. The resulting pellet was washed with SPF-PCB+. After this washing, cells were resuspended in SPF-PCB+ at a density of 1–2×10^6 cells/mL.
6. For recording fluorescent signals, 300 μL of cell suspension were diluted in 1.2 mL of SPF buffer containing 1 mM CaCl2 and 1 mg/mL of D-glucose. Measurements of fluorescence were performed at 37° C. with constant stirring using a spectrofluorimeter. […] To calibrate fluorescence signals, digitonin (5 mg/mL in ethanol) was added to obtain Fmax, and the apparent Fmin was determined by adding Tris-EGTA (2.5 M Tris-Base, 0.3 M EGTA).
7. To determine the potential calcilytic activity of test compounds, cells were incubated with test compound (or vehicle as a control) for 90 seconds before increasing the concentration of extracellular Ca^2+ from 1 to 2 mM. Calcilytic compounds were detected by their ability to block, in a concentration-dependent manner, increases in the concentration of intracellular Ca^2+ elicited by extracellular Ca^2+.

Structure (SMILES)	IC50 [µM]
CCCCCCCCOCC(O)CNC(C)(C)Cc1ccc(OC)cc1 (stereo not drawn) [Compound 65, N-(2-Hydroxy-3-octanoxypropyl)-1,1-dimethyl-2-(4-methoxyphenyl)ethylamine]	< 1
CCCCCCOCC(O)CNC(C)(C)Cc1ccc(OC)cc1 (stereo not drawn) [Compound 66, N-(2-Hydroxy-3-hexanoxypropyl)-1,1-dimethyl-2-(4-methoxyphenyl)ethylamine]	< 10
COc1ccc(CC(C)(C)NCC(O)CSc2ccccc2)cc1 (stereo not drawn) [Compound 68, N-(2-Hydroxy-3-thiophenylpropyl)-1,1-dimethyl-2-(4-methoxyphenyl)ethylamine]	< 10
CCCCCCCCC(O)CNC(C)(C)Cc1ccc(OC)cc1 (stereo not drawn) [Compound 69, N-(2-Hydroxydecanyl)-1,1-dimethyl-2-(4-methoxyphenyl)ethylamine]	< 1
CCCCCCCCCCC(O)CNC(C)(C)Cc1ccc(OC)cc1 (stereo not drawn) [Compound 70, N-(2-Hydroxydodecanyl)-1.1-dimethyl-2-(4-methoxyphenyl)ethylamine]	> 50
C=CCCCCCCC(O)CNC(C)(C)Cc1ccc(OC)cc1 (stereo not drawn) [Compound 71, N-(2-Hydroxydec-9-enyl)-1,1-dimethyl-2-(4-methoxyphenyl)ethylamine]	< 10
COc1ccc(CC(C)(C)NCC(O)COCC2CCCCC2)cc1 (stereo not drawn) [Compound 75, N-(2-Hydroxy-3-cyclohexylmethoxypropyl)-1,1-dimethyl-2-(4-methoxyphenyl)ethylamine Hydrochloride]	< 10
COc1ccc(CC(C)(C)NCC(O)CCc2ccccc2)cc1 (stereo not drawn) [Compound 79, N-(2-Hydroxy-4-phenylbutyl)-1,1-dimethyl-2-(4-methoxyphenyl)ethylamine Hydrochloride]	< 50

same assay, conditions: HEK 293 4.0–7 cells stably expressing the human calcium receptor; fluo-3; read-out: IC50 for blocking increases of intracellular Ca2+ elicited by extracellular Ca2+

Structure (SMILES)	IC50 [µM]
COc1ccc(CC(C)(C)NCC(O)COc2cccc(Cl)c2)cc1 (stereo not drawn) [Compound 43, N-[2-Hydroxy-3-(3-chlorophenoxy)propyl]-1,1-dimethyl-2-(4-methoxyphenyl)ethylamine Hydrochloride]	< 1
COc1ccc(CC(C)(C)NCC(O)COc2ccc(F)cc2)cc1 (stereo not drawn) [Compound 44, N-[2-Hydroxy-3-(4-fluorophenoxy)propyl]-1,1-dimethyl-2-(4-methoxyphenyl)ethylamine Hydrochloride]	< 1
COc1ccc(CC(C)(C)NCC(O)COc2cccc(C)c2)cc1 (stereo not drawn) [Compound 45, N-[2-Hydroxy-3-(3-methylphenoxy)propyl]-1,1-dimethyl-2-(4-methoxyphenyl)ethylamine Hydrochloride]	< 10
COc1ccc(CC(C)(C)NCC(O)COc2cccc(C(F)(F)F)c2)cc1 (stereo not drawn) [Compound 46, N-[2-Hydroxy-3-(3-trifluoromethylphenoxy)propyl]-1,1-dimethyl-2-(4-methoxyphenyl)ethylamine Hydrochloride]	< 1
COc1ccc(CC(C)(C)NCC(O)COc2ccccc2C(F)(F)F)cc1 (stereo not drawn) [Compound 47, N-[2-Hydroxy-3-(2-trifluoromethylphenoxylpropyl]-1,1-dimethyl-2-(4-methoxyphenyl)ethylamine Hydrochloride]	< 1
COc1ccc(CC(C)(C)NCC(O)COc2ccccc2C(C)(C)C)cc1 (stereo not drawn) [Compound 48, N-[2-Hydroxy-3-(2-t-butylphenoxy)propyl]-1,1-dimethyl-2-(4-methoxyphenyl)ethylamine Hydrochloride]	< 10
COc1ccc(CC(C)(C)NCC(O)COc2ccccc2OC)cc1 (stereo not drawn) [Compound 49, N-[2-Hydroxy-3-(2-methoxyphenoxy)propyl]-1,1-dimethyl-2-(4-methoxyphenyl)ethylamine Hydrochloride]	< 10
COc1ccc(CC(C)(C)NCC(O)COc2cccc(C(C)(C)C)c2)cc1 (stereo not drawn) [Compound 50, N-[2-Hydroxy-3-(3-t-butylphenoxy)propyl]-1,1-dimethyl-2-(4-methoxyphenyl)ethylamine Hydrochloride]	< 1
COc1ccc(CC(C)(C)NCC(O)COc2ccc(C(F)(F)F)cc2)cc1 (stereo not drawn) [Compound 51, N-[2-Hydroxy-3-(4-trifluoromethylphenoxy)propyl]-1,1-dimethyl-2-(4-methoxyphenyl)ethylamine Hydrochloride]	< 1
COc1ccc(CC(C)(C)NCC(O)COc2ccccc2NC(C)=O)cc1 (stereo not drawn) [Compound 52, N-[2-hydroxy-3-(2-acetamidophenoxy)propyl]-1,1-dimethyl-2(4-methoxyphenyl)ethylamine]	> 50
COc1ccc(CC(C)(C)NCCOc2ccccc2)cc1 [Compound 53, N-(2-phenoxyethyl)-1,1-dimethyl-2-(4-methoxyphenyl)ethylamine]	> 50
CC(C)(Cc1ccccc1)NCC(O)COc1ccc(C(C)(C)C)cc1 (stereo not drawn) [Compound 54]	> 50
CC(C)(Cc1ccccc1)NCC(O)COc1cccc2ccccc12 (stereo not drawn) [Compound 55, N-[2-hydroxy-3-(1-naphthoxy)propyl]-1,1-dimethyl-2-phenylethylamine]	> 50
CC(C)(Cc1ccccc1)NCC(O)COc1ccccc1 (stereo not drawn) [Compound 56, N-(2-Hydroxy-3-phenoxypropyl)-1,1-dimethyl-2-phenylethylamine Hydrochloride]	< 50
COc1ccc(CC(C)(C)NCC(O)COc2ccc(NC(C)=O)cc2)cc1 (stereo not drawn) [Compound 58, N-[2-hydroxy-3-(4-acetamidophenoxy)propyl]-1,1-dimethyl-2(4-methoxyphenyl)ethylamine]	> 50
COc1ccc(CC(C)(C)NCC(COc2ccccc2)OC)cc1 (stereo not drawn) [Compound 59, N-(2-Methoxy-3-phenoxypropyl)-1,1-dimethyl-2-(4-methoxyphenyl)ethylamine Hydrochloride]	< 10
COc1ccc(CC(C)(C)NCC(O)COc2ccccc2-c2ccccc2)cc1 (stereo not drawn) [Compound 60, N-[2-hydroxy-3-(2-phenylphenoxy)propyl]-1,1-dimethyl-2-(4-methoxyphenyl)ethylamine]	> 50
COc1ccc(CC(C)(C)NCC(O)COc2cccc(-c3ccccc3)c2)cc1 (stereo not drawn) [Compound 61, N-[2-hydroxy-3-(3-phenylphenoxy)propyl]-1,1-dimethyl-2-(4-methoxyphenyl)ethylamine]	< 10
COc1ccc(CC(C)(C)NCC(O)COc2ccc(-c3ccccc3)cc2)cc1 (stereo not drawn) [Compound 62, N-[2-Hydroxy-3-(4-phenylphenoxy)propyl]-1,1-dimethyl-2-(4-methoxyphenyl)ethylamine]	> 50
CCCCCCCCCCOCC(O)CNC(C)(C)Cc1ccc(OC)cc1 (stereo not drawn) [Compound 67, N-(2-Hydroxy-3-decanoxypropyl)-1,1-dimethyl-2-(4-methoxyphenyl)ethylamine]	< 1
CCCCCCCCCCCCOCC(O)CNC(C)(C)Cc1ccc(OC)cc1 (stereo not drawn) [Compound 72, N-(3-Dodecanoxy-2-hydroxypropyl)-1,1-dimethyl-2-(4-methoxyphenyl)ethylamine]	< 1
COc1ccc(CC(C)(C)NCC(O)COCC23CC4CC(CC(C4)C2)C3)cc1 (stereo not drawn) [Compound 74, N-[2-Hydroxy-3-(1-adamantylmethoxy)propyl]-1,1-dimethyl-2-(4-methoxyphenyl)ethylamine Hydrochloride]	< 1
